Results reported in ChEMBL document CHEMBL1944583, “Synthesis and evaluation of hexahydropyrrolo[3,4-d]isoxazole-4,6-diones as anti-stress agents” (Eur J Med Chem, 2012).
Active and inactive are the calls of the source. No cut-off for these calls is given here.

Experiments:
Mus musculus [1] = assay: Antistress activity in Swiss albino mouse assessed as reversal of immobilization stress-induced decrease in rearing at 2 mg/kg, ip administered 60 mins before stress induction measured after 10 mins by hole board test; assay type: functional, organism-based; set-up: dose 2 mg/kg
Mus musculus [2] = assay: Antistress activity in Swiss albino mouse assessed as reversal of immobilization stress-induced decrease in locomotor activity at 2 mg/kg, ip administered 60 mins before stress induction measured every 5 mins by actophotometer test; assay type: functional, organism-based; set-up: dose 2 mg/kg
Mus musculus [3] = assay: Antistress activity in Swiss albino mouse assessed as reversal of immobilization stress-induced decrease in number of line crossing at 2 mg/kg, ip administered 60 mins before stress induction measured after 10 mins by open field test; assay type: functional, organism-based; set-up: dose 2 mg/kg
Mus musculus [4] = assay: Antistress activity in Swiss albino mouse assessed as reversal of immobilization stress-induced decrease in frequency of rearing at 2 mg/kg, ip administered 60 mins before stress induction measured after 10 mins by open field test; assay type: functional, organism-based; set-up: dose 2 mg/kg
Mus musculus [5] = assay: Antistress activity in Swiss albino mouse assessed as reversal of immobilization stress-induced decrease in frequency of head dip at 2 mg/kg, ip administered 60 mins before stress induction measured after 10 mins by hole board test; assay type: functional, organism-based; set-up: dose 2 mg/kg
Mus musculus [6] = assay: Antistress activity in Swiss albino mouse assessed as […] immobilization stress-induced decrease in non-social behavior at 2 mg/kg, ip administered 60 mins before stress induction measured after 10 mins by open field test; assay type: functional, organism-based; set-up: dose 2 mg/kg
Mus musculus [7] = assay: Toxicity in Swiss albino mouse assessed as increase in frequency of head dips at 10 mg/kg, ip; assay type: organism-based; set-up: dose 10 mg/kg, route intraperitoneal; conditions: in vivo
Mus musculus [8] = assay: Toxicity in Swiss albino mouse assessed as increase in frequency of rearing at 10 mg/kg, ip; assay type: organism-based; set-up: dose 10 mg/kg, route intraperitoneal; conditions: in vivo
Mus musculus [9] = assay: Antistress activity in Swiss albino mouse assessed as reversal of immobilization stress-induced decrease in frequency of head dip at 10 mg/kg, ip administered 60 mins before stress induction measured after 10 mins by hole board test; assay type: functional, organism-based; set-up: dose 10 mg/kg
Mus musculus [10] = assay: Antistress activity in Swiss albino mouse assessed as reversal of immobilization stress-induced decrease in number of line crossing at 10 mg/kg, ip administered 60 mins before stress induction measured after 10 mins by open field test; assay type: functional, organism-based; set-up: dose 10 mg/kg
Mus musculus [11] = assay: Antistress activity in Swiss albino mouse assessed as reversal of immobilization stress-induced decrease in non-social behavior at 10 mg/kg, ip administered 60 mins before stress induction measured after 10 mins by open field test; assay type: functional, organism-based; set-up: dose 10 mg/kg
Mus musculus [12] = assay: Antistress activity in Swiss albino mouse assessed as reversal of immobilization stress-induced decrease in rearing at 10 mg/kg, ip administered 60 mins before stress induction measured after 10 mins by hole board test; assay type: functional, organism-based; set-up: dose 10 mg/kg
Mus musculus [13] = assay: Antistress activity in Swiss albino mouse assessed as reversal of immobilization stress-induced decrease in frequency of rearing at 10 mg/kg, ip administered 60 mins before stress induction measured after 10 mins by open field test; assay type: functional, organism-based; set-up: dose 10 mg/kg
Mus musculus [14] = assay: Antistress activity in Swiss albino mouse assessed as reversal of immobilization stress-induced decrease in frequency of rearing at 5 mg/kg, ip administered 60 mins before stress induction measured after 10 mins by open field test; assay type: functional, organism-based; set-up: dose 5 mg/kg
Mus musculus [15] = assay: Antistress activity in Swiss albino mouse assessed as reversal of immobilization stress-induced decrease in frequency of head dip at 5 mg/kg, ip administered 60 mins before stress induction measured after 10 mins by hole board test; assay type: functional, organism-based; set-up: dose 5 mg/kg
Mus musculus [16] = assay: Antistress activity in Swiss albino mouse assessed as reversal of immobilization stress-induced decrease in rearing at 5 mg/kg, ip administered 60 mins before stress induction measured after 10 mins by hole board test; assay type: functional, organism-based; set-up: dose 5 mg/kg
Mus musculus [17] = assay: Antistress activity in Swiss albino mouse assessed as reversal of immobilization stress-induced decrease in non-social behavior at 5 mg/kg, ip administered 60 mins before stress induction measured after 10 mins by open field test; assay type: functional, organism-based; set-up: dose 5 mg/kg
Mus musculus [18] = assay: Antistress activity in Swiss albino mouse assessed as reversal of immobilization stress-induced decrease in locomotor activity at 5 mg/kg, ip administered 60 mins before stress induction measured every 5 mins by actophotometer test; assay type: functional, organism-based; set-up: dose 5 mg/kg
Mus musculus [19] = assay: Antistress activity in Swiss albino mouse assessed as reversal of immobilization stress-induced decrease in locomotor activity at 10 mg/kg, ip administered 60 mins before stress induction measured every 5 mins by actophotometer test; assay type: functional, organism-based; set-up: dose 10 mg/kg
[20] = Half life in Swiss albino mouse; assay type: ADME, organism-based; conditions: in vivo
Mus musculus [21] = assay: Antistress activity in Swiss albino mouse assessed as reversal of immobilization stress-induced decrease in number of line crossing at 5 mg/kg, ip administered 60 mins before stress induction measured after 10 mins by open field test; assay type: functional, organism-based; set-up: dose 5 mg/kg

SMILES	Activity (Mus musculus [1])	Activity (Mus musculus [2])	Activity (Mus musculus [3])	Activity (Mus musculus [4])	Activity (Mus musculus [5])	Activity (Mus musculus [6])	Activity (Mus musculus [7])	Activity (Mus musculus [8])	Activity (Mus musculus [10])	Activity (Mus musculus [11])	Activity (Mus musculus [13])	Activity (Mus musculus [14])	Activity (Mus musculus [17])	Activity (Mus musculus [18])	Activity (Mus musculus [19])	Activity (Mus musculus [21])	also measured
CN1C(=O)CN=C(c2ccccc2)c2cc(Cl)ccc21	Active	Active	Active	Active	Active	Active	–	–	–	–	–	–	–	–	–	–	–
O=C1[C@H]2[C@@H](c3ccccc3)N(c3ccccc3)O[C@H]2C(=O)N1c1cccc2ccccc12 (relative stereo)	inactive	–	–	–	inactive	–	Non-toxic	Non-toxic	Active	Active	Active	Active	Active	Active	Active	Active	Activity (Mus musculus [9]): Active; Activity (Mus musculus [12]): Active; Activity (Mus musculus [15]): Active; Activity (Mus musculus [16]): Active; half-life [20]: 3 h
O=C1[C@@H]2[C@@H](ON(c3ccccc3)[C@H]2c2ccccc2)C(=O)N1c1cccc2ccccc12 (relative stereo)	–	inactive	inactive	inactive	–	inactive	Non-toxic	Non-toxic	Active	Active	Active	inactive	inactive	inactive	Active	inactive	–
